Results: PubChem BioAssay (NCI)
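48-hour exposure; five concentrations; linearly interpolated endpoints. At the GI50, growth is halved. TGI is the concentration that stops growth completely.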

Tests used:
Test in all cases: NCI anticancer screen, dose series, 48 h
MOLT-4 leukemia = tested on: MOLT-4 leukemia
DU-145 prostate = tested on: DU-145 prostate
HCT-116 colon = tested on: HCT-116 colon
BT-549 breast = tested on: BT-549 breast
TK-10 renal = tested on: TK-10 renal
NCI/ADR-RES ovarian = tested on: NCI/ADR-RES ovarian
COLO 205 colon = tested on: COLO 205 colon
SW-620 colon = tested on: SW-620 colon
UACC-257 melanoma = tested on: UACC-257 melanoma
OVCAR-5 ovarian = tested on: OVCAR-5 ovarian
HT29 colon = tested on: HT29 colon
SK-MEL-28 melanoma = tested on: SK-MEL-28 melanoma
PC-3 prostate = tested on: PC-3 prostate
KM12 colon = tested on: KM12 colon
SK-MEL-5 melanoma = tested on: SK-MEL-5 melanoma
SNB-75 CNS = tested on: SNB-75 CNS
RPMI-8226 leukemia = tested on: RPMI-8226 leukemia
IGROV1 ovarian = tested on: IGROV1 ovarian
OVCAR-4 ovarian = tested on: OVCAR-4 ovarian
HS 578T breast = tested on: HS 578T breast
SR leukemia = tested on: SR leukemia
A549 NSCLC = tested on: A549 NSCLC
OVCAR-8 ovarian = tested on: OVCAR-8 ovarian
NCI-H460 lung = tested on: NCI-H460 lung
RXF 393 renal = tested on: RXF 393 renal
A498 renal = tested on: A498 renal
SN12C renal = tested on: SN12C renal
HOP-92 NSCLC = tested on: HOP-92 NSCLC
786-0 renal = tested on: 786-0 renal
MCF7 breast = tested on: MCF7 breast
MALME-3M melanoma = tested on: MALME-3M melanoma
SK-MEL-2 melanoma = tested on: SK-MEL-2 melanoma
CAKI-1 renal = tested on: CAKI-1 renal
HOP-62 NSCLC = tested on: HOP-62 NSCLC
UO-31 renal = tested on: UO-31 renal
NCI-H522 lung = tested on: NCI-H522 lung
SF-539 CNS = tested on: SF-539 CNS
U251 CNS = tested on: U251 CNS
CCRF-CEM leukemia = tested on: CCRF-CEM leukemia
MDA-MB-231 breast = tested on: MDA-MB-231 breast
HCC-2998 colon = tested on: HCC-2998 colon
HL-60(TB) leukemia = tested on: HL-60(TB) leukemia
LOX IMVI melanoma = tested on: LOX IMVI melanoma
SNB-19 CNS = tested on: SNB-19 CNS
UACC-62 melanoma = tested on: UACC-62 melanoma
HCT-15 colon = tested on: HCT-15 colon
MDA-MB-435 = tested on: MDA-MB-435
EKVX NSCLC = tested on: EKVX NSCLC
SK-OV-3 ovarian = tested on: SK-OV-3 ovarian
SF-295 CNS = tested on: SF-295 CNS
M14 melanoma = tested on: M14 melanoma
SF-268 CNS = tested on: SF-268 CNS
T-47D breast = tested on: T-47D breast
NCI-H226 lung = tested on: NCI-H226 lung
ACHN renal = tested on: ACHN renal

CCCCCCNC(=O)Oc1ccc(/C(=C(/C)c2ccc(OC)cc2)c2ccc(OCCN3CCCCCC3)cc2)cc1
GI50 (MOLT-4 leukemia): 2380 nM | TGI (MOLT-4 leukemia): 7.45 µM | GI50 (DU-145 prostate): 8.29 µM | TGI (DU-145 prostate): 23.4 µM | GI50 (HCT-116 colon): 1520 nM | TGI (HCT-116 colon): 2850 nM | GI50 (BT-549 breast): 2660 nM | TGI (BT-549 breast): 7.94 µM | GI50 (TK-10 renal): 17 µM | TGI (TK-10 renal): 31.3 µM | GI50 (NCI/ADR-RES ovarian): 2910 nM | TGI (NCI/ADR-RES ovarian): 11.2 µM | GI50 (COLO 205 colon): 1880 nM | TGI (COLO 205 colon): 3.54 µM | GI50 (SW-620 colon): 2010 nM | TGI (SW-620 colon): 4.15 µM | GI50 (UACC-257 melanoma): 2100 nM | TGI (UACC-257 melanoma): 5.05 µM | GI50 (OVCAR-5 ovarian): 7.03 µM | TGI (OVCAR-5 ovarian): 20.5 µM | GI50 (HT29 colon): 1710 nM | TGI (HT29 colon): 4.09 µM | GI50 (SK-MEL-28 melanoma): 1860 nM | TGI (SK-MEL-28 melanoma): 3.73 µM | GI50 (PC-3 prostate): 3.05 µM | TGI (PC-3 prostate): 11.4 µM | GI50 (KM12 colon): 10.9 µM | TGI (KM12 colon): 24.2 µM | GI50 (SK-MEL-5 melanoma): 1690 nM | TGI (SK-MEL-5 melanoma): 3.12 µM | GI50 (SNB-75 CNS): 5.79 µM | TGI (SNB-75 CNS): 22.1 µM | GI50 (RPMI-8226 leukemia): 2210 nM | TGI (RPMI-8226 leukemia): 5.47 µM | GI50 (IGROV1 ovarian): 3.66 µM | TGI (IGROV1 ovarian): 13.6 µM | GI50 (OVCAR-4 ovarian): 4.6 µM | TGI (OVCAR-4 ovarian): 18.5 µM | GI50 (HS 578T breast): 2750 nM | TGI (HS 578T breast): 12.3 µM | GI50 (SR leukemia): 1320 nM | TGI (SR leukemia): 4.6 µM | GI50 (A549 NSCLC): 3.56 µM | TGI (A549 NSCLC): 14.4 µM | GI50 (OVCAR-8 ovarian): 1960 nM | TGI (OVCAR-8 ovarian): 3.99 µM | GI50 (NCI-H460 lung): 1900 nM | TGI (NCI-H460 lung): 3.52 µM | GI50 (RXF 393 renal): 1800 nM | TGI (RXF 393 renal): 3.85 µM | GI50 (A498 renal): 7.14 µM | TGI (A498 renal): 20.2 µM | GI50 (SN12C renal): 1970 nM | TGI (SN12C renal): 4.77 µM | GI50 (HOP-92 NSCLC): 2000 nM | TGI (HOP-92 NSCLC): 6.96 µM | GI50 (786-0 renal): 1680 nM | TGI (786-0 renal): 3.1 µM | GI50 (MCF7 breast): 377 nM | TGI (MCF7 breast): 2580 nM | GI50 (MALME-3M melanoma): 1770 nM | TGI (MALME-3M melanoma): 3.44 µM | GI50 (SK-MEL-2 melanoma): 2090 nM | TGI (SK-MEL-2 melanoma): 4.79 µM | GI50 (CAKI-1 renal): 3.84 µM | TGI (CAKI-1 renal): 15 µM | GI50 (HOP-62 NSCLC): 6.7 µM | TGI (HOP-62 NSCLC): 20.7 µM | GI50 (UO-31 renal): 2140 nM | TGI (UO-31 renal): 6.63 µM | GI50 (NCI-H522 lung): 4.12 µM | TGI (NCI-H522 lung): 16.2 µM | GI50 (SF-539 CNS): 1670 nM | TGI (SF-539 CNS): 3.1 µM | GI50 (U251 CNS): 1720 nM | TGI (U251 CNS): 3.33 µM | GI50 (CCRF-CEM leukemia): 2620 nM | TGI (CCRF-CEM leukemia): > 100 µM | GI50 (MDA-MB-231 breast): 1890 nM | TGI (MDA-MB-231 breast): 3.76 µM | GI50 (HCC-2998 colon): 2090 nM | TGI (HCC-2998 colon): 4.71 µM | GI50 (HL-60(TB) leukemia): 988 nM | TGI (HL-60(TB) leukemia): 3.47 µM | GI50 (LOX IMVI melanoma): 1450 nM | TGI (LOX IMVI melanoma): 2760 nM | GI50 (SNB-19 CNS): 7.29 µM | TGI (SNB-19 CNS): 32.1 µM | GI50 (UACC-62 melanoma): 2210 nM | TGI (UACC-62 melanoma): 4.97 µM | GI50 (HCT-15 colon): 1480 nM | TGI (HCT-15 colon): 3.15 µM | GI50 (MDA-MB-435): 2110 nM | TGI (MDA-MB-435): 4.71 µM | GI50 (EKVX NSCLC): 5.15 µM | TGI (EKVX NSCLC): 19.2 µM | GI50 (SK-OV-3 ovarian): 7.57 µM | TGI (SK-OV-3 ovarian): 21.2 µM | GI50 (SF-295 CNS): 1760 nM | TGI (SF-295 CNS): 3.36 µM | GI50 (M14 melanoma): 1810 nM | TGI (M14 melanoma): 3.56 µM | GI50 (SF-268 CNS): 7.36 µM | TGI (SF-268 CNS): 24 µM | GI50 (T-47D breast): 1390 nM | TGI (T-47D breast): 4.01 µM | GI50 (NCI-H226 lung): 10.3 µM | TGI (NCI-H226 lung): 23.6 µM | GI50 (ACHN renal): 3.17 µM | TGI (ACHN renal): 10.4 µM
